Values quoted from earlier work in patent US20230040901A1, “PHARMACEUTICAL COMPOSITION FOR INHIBITING POSTOPERATIVE ADHESIONS” (PlantTec Medical GmbH, priority 2018, published 2023).

Tests used:
[1] = system: postoperative adhesions; conditions: clinical application in 400 abdominal surgeries
[2] = system: postoperative adhesions; conditions: 2% to 4% citrate in water or saline solution, 60 experiments on rabbits

In the case of `O=C(O)CC(O)(CC(=O)O)C(=O)O` [citrate], the Development of adhesions [1] is listed as “clear improvement” and the Adhesions [2] is listed as “fewer adhesions”.
